In PMC5731698, “Identification and characterization of the three members of the CLC family of anion transport proteins in Trypanosoma brucei” (PLoS ONE, 2017):

Experiments:
TbVCL3 = target: T1, TbVCL3 (Trypanosoma brucei, UniProt Q381B7); test: two-electrode voltage clamp, Xenopus oocytes; format: cell-based
T1 construct: gene Tb11.01.8420; full-length, untagged cRNA in Xenopus laevis oocytes; dimer expected (CLC family), heterodimer with endogenous Xenopus CLC not excluded
T1 sequence (Q381B7 1-918): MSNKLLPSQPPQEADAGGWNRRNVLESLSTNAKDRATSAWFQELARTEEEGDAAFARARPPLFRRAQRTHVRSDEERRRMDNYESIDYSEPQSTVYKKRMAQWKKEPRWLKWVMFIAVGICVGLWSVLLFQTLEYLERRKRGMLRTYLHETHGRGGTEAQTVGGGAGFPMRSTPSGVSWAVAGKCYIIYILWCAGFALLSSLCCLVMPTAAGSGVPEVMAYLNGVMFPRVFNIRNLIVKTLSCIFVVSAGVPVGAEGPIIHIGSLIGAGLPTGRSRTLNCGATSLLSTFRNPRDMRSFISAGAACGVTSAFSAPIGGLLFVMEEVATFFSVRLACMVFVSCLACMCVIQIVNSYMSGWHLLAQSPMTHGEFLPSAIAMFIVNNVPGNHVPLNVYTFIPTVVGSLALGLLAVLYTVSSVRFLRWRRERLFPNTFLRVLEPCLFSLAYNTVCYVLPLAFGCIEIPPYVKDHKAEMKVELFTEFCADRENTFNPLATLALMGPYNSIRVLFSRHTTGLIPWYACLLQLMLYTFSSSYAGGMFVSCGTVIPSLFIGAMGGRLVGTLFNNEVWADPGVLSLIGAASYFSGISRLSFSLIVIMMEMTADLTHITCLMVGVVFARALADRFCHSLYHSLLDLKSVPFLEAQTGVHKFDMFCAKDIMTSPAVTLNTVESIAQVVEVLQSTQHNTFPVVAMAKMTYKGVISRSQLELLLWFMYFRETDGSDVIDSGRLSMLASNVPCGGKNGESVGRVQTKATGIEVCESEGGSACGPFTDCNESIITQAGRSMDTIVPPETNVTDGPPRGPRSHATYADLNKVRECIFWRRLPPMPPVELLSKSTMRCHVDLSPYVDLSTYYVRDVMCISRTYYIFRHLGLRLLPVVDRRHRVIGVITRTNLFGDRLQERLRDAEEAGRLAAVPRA
Source text: two-electrode voltage clamp, Xenopus oocytes on TbVCL3 | TbVCL3-expressing oocytes ...

TbVCL2 = target: T2, TbVCL2 (Trypanosoma brucei, UniProt Q389H3); test: two-electrode voltage clamp, Xenopus oocytes; format: cell-based
T2 construct: gene Tb10.26.0220; full-length, untagged cRNA in Xenopus laevis oocytes; dimer expected (CLC family), heterodimer with endogenous Xenopus CLC not excluded
T2 sequence (Q389H3 1-941): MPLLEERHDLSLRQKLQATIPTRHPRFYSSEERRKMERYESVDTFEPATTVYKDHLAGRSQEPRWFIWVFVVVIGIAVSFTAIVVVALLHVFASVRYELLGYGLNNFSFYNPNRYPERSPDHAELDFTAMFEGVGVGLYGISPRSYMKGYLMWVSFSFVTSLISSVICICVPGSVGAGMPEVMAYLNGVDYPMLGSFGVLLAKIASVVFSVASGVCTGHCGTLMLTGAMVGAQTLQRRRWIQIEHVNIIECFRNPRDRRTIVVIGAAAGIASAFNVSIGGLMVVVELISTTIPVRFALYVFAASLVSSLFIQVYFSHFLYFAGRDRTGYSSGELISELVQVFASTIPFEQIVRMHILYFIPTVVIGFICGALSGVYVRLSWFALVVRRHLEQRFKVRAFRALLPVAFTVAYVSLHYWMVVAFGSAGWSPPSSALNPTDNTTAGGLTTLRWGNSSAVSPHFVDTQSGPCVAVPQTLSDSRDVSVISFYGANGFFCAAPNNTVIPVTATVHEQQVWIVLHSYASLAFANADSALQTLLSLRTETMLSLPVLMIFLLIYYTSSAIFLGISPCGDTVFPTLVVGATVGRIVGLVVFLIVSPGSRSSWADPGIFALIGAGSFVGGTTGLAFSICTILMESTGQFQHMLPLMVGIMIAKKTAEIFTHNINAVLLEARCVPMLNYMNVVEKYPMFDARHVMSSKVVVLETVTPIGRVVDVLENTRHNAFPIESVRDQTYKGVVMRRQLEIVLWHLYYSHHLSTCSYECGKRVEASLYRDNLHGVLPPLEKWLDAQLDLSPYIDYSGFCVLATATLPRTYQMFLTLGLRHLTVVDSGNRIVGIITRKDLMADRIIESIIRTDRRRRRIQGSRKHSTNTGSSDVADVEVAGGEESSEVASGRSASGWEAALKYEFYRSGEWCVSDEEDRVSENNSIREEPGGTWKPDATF

Which IC50 (TbVCL3) does the source give for `O=S(=O)(O)c1cc(N=C=S)ccc1/C=C/c1ccc(N=C=S)cc1S(=O)(=O)O` [DIDS, 4,4-diisothiocyanostilbene-2,2-disulphonate] here?
The IC50 was 56 ± 18 µM.

And the IC50 (TbVCL2)?
The IC50 was 30 ± 3 µM.
